These results are taken from patent publication US8871753B2, “Macrocyclic compounds and their use as kinase inhibitors” (Incyte Corporation, priority 2008, dated 2014).

Structures can show the parent of a compound that is named as a salt.

What all share (type): biochemical
Assay [1] addresses T1, human JAK2 (a.a. 828-1132) (Homo sapiens, UniProt O60674).
T1 construct: JAK2 (a.a. 828-1132); His tag (N); made in house; host or cells: insect cells (baculovirus)
The experiment in a line: In vitro JAK kinase assay (HTRF, phosphorylation of a biotinylated peptide), JAK2. To be noted: Table B1. An outline of the steps: (§1)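 Kinase activity was measured as phosphorylation of a biotinylated peptide, with ATP at 90 μM for JAK1, 30 μM for JAK2 and 3 μM for JAK3. Reactions ran 1 hr at room temperature, were stopped with EDTA plus SA-APC and Eu-Py20, and were read by HTRF after 40 minutes of antibody binding.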
On the technique in general: In TR-FRET formats the signal depends on donor and acceptor labels being close together.

In assay [2] the target is T2, Recombinant Human Anaplastic Lymphoma Kinase (Homo sapiens, UniProt Q9UM73).
T2 construct: purchased Invitrogen, Carlsbad, Calif
T2 sequence (Q9UM73 19-1620): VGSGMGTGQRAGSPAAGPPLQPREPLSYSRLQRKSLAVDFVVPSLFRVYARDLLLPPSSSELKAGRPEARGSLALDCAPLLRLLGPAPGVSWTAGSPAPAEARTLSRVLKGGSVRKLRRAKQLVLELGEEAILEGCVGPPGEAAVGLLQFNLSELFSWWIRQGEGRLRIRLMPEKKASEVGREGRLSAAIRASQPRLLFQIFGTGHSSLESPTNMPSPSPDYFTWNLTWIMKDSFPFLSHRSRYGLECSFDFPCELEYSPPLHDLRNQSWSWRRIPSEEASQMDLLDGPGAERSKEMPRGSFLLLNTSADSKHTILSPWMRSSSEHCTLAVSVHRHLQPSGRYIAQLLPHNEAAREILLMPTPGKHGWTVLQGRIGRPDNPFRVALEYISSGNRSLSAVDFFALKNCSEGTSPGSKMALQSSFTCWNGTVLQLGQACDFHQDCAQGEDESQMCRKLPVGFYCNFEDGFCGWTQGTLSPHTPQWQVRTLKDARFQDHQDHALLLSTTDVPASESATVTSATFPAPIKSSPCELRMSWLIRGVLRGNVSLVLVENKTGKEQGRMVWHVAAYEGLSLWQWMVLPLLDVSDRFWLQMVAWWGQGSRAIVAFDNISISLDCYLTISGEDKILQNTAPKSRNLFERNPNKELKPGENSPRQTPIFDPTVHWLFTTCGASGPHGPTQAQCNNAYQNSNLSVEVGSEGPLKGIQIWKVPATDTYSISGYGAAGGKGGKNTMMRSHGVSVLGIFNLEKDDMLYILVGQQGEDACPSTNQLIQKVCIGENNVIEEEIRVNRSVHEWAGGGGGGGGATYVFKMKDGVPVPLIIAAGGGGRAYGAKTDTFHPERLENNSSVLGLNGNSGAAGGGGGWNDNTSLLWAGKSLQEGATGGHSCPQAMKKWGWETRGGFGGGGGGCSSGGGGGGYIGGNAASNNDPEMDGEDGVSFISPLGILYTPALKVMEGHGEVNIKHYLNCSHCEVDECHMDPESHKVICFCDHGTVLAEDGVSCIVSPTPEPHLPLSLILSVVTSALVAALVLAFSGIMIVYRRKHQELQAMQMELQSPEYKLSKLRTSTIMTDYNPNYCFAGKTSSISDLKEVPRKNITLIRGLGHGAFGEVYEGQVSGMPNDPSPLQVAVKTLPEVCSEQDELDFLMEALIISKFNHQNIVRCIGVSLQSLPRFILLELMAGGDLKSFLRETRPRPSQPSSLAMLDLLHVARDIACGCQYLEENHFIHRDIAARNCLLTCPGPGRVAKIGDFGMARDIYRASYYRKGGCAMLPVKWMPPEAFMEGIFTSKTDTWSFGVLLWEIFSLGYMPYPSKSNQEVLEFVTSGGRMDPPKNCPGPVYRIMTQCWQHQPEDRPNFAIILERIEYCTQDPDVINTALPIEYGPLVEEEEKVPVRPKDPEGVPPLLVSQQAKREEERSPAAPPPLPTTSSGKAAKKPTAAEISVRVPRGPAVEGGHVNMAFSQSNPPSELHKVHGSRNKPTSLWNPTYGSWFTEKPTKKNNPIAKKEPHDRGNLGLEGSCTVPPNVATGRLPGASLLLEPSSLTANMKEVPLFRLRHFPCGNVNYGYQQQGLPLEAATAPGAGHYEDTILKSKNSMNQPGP
The experiment in a line: ALK HTRF kinase assay. To be noted: compound at a concentration of 500 nM or 1 mM (not specified); cells shown as percentage. An outline of the steps: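 Compounds were incubated with recombinant human ALK and a biotin-tagged peptide substrate. Product was captured with streptavidin-APC and probed with a europium anti-phosphotyrosine antibody, and plates were read for time-resolved fluorescence. Dose-response data were fitted to derive IC50.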

Assay [3] concerns the target T3, human JAK1 (a.a. 837-1142) (Homo sapiens, UniProt P23458).
T3 construct: human JAK1 (a.a. 837-1142); His tag (N); made in house; host or cells: insect cells (baculovirus)
The assay can be described thus: In vitro JAK kinase assay (HTRF, phosphorylation of a biotinylated peptide), JAK1. To be noted: Table B1; read-out: JAK1 IC50. An outline of the steps:
as §1

A further assay has as its target TYK2 (Homo sapiens, UniProt P29597). The experiment in a line: TYK2 kinase inhibition (Table A1). The settings on record: Table B1.
Assay [4] addresses T4, human JAK3 (a.a. 781-1124) (Homo sapiens, UniProt P52333).
T4 construct: JAK3 (a.a. 781-1124); His tag (N); made in house; host or cells: insect cells (baculovirus)
The experiment in a line: In vitro JAK kinase assay (HTRF, phosphorylation of a biotinylated peptide), JAK3. To be noted: Table B1. An outline of the steps:
as §1

T1 sequence (O60674 828-1132): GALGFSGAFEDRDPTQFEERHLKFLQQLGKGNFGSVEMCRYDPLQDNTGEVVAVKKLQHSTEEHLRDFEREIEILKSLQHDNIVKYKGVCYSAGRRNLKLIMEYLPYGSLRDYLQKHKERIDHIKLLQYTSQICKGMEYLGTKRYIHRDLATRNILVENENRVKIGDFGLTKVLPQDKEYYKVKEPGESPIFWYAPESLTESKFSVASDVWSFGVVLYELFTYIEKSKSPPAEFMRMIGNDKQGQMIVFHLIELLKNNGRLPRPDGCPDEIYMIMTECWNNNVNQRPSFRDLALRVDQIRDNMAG
T4 sequence (P52333 781-1124): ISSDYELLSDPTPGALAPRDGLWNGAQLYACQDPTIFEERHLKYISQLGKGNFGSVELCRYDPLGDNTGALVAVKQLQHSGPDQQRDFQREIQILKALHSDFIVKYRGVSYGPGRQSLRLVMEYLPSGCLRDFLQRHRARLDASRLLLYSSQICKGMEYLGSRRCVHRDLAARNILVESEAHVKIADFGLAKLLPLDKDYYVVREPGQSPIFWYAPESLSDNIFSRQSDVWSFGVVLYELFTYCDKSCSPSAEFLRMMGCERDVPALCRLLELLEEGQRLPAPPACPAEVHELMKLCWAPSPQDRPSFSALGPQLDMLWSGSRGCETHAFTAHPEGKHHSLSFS
TYK2, sequence (P29597 whole entry): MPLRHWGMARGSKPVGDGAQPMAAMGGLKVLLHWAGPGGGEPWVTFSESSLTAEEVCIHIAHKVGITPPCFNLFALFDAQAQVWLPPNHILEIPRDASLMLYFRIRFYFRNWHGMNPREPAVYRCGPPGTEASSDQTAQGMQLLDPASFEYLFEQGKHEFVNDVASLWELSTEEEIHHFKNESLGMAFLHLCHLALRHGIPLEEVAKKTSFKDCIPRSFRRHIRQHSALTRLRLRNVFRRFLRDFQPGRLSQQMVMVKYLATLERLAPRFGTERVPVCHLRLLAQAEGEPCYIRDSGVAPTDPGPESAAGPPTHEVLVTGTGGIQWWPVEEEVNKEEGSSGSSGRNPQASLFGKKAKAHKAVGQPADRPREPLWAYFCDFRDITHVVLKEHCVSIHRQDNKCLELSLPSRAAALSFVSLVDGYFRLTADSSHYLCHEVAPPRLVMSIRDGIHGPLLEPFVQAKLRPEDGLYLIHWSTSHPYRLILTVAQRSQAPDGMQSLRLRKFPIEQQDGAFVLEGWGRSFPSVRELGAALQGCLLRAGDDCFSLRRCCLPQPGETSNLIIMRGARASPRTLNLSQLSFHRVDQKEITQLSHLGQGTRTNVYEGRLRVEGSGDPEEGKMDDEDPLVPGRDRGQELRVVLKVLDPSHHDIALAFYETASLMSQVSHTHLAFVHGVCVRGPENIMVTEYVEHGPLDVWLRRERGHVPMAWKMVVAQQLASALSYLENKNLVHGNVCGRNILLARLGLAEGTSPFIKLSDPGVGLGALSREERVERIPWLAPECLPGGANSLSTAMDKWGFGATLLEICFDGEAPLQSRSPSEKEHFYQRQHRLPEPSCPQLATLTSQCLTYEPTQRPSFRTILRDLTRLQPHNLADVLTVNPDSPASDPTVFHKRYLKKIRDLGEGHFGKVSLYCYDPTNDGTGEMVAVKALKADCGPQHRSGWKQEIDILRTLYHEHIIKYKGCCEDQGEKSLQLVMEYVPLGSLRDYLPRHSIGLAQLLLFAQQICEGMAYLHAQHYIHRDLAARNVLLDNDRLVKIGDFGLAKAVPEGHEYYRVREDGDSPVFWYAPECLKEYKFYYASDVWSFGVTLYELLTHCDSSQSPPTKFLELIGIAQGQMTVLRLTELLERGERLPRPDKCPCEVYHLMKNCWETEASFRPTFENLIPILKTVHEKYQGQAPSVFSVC
T3 sequence (P23458 849-1154): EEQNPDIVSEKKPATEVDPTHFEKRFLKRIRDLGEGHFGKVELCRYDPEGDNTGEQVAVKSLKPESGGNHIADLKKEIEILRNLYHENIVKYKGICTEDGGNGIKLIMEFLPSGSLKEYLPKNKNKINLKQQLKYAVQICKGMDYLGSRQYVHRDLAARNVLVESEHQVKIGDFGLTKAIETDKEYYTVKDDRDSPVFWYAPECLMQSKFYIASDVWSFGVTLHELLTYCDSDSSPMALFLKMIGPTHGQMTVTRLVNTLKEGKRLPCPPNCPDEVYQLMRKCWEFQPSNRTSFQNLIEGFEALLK

Usually IC50 stands for the concentration at which inhibition is half-maximal. For `O=C(NCCO)Nc1ccc2cc1CCc1cccc(c1)Nc1ncc(Cl)c(n1)N2` [Example B241, N-[6-Chloro-2,4,8,22-tetraazatetracyclo[14.3.1.1(3,7).1(9,13)]docosa-1(20),3(22),4,6,9(21),10,12,16,18-nonaen-12-yl]-N′-(2-hydroxyethyl)urea trifluoroacetate], the IC50 in assay [1] was found to be 1.5 nM; in assay [3], 1.1 nM; at TYK2, 3.5 nM; in assay [4], 10 nM. Besides, the “ALK % of inhibition at a concentration of 500 nM or 1 mM” value (“ALK % of inhibition” for short) in assay [2] stood at 22%.

`CC(CO)NC(=O)Nc1ccc2cc1CCc1cccc(c1)Nc1ncc(Cl)c(n1)N2` (centres unmarked) [Example B242, N-[6-Chloro-2,4,8,22-tetraazatetracyclo[14.3.1.1(3,7).1(9,13)]docosa-1(20),3(22),4,6,9(21),10,12,16,18-nonaen-12-yl]-N′-(2-hydroxy-1-methylethyl)urea trifluoroacetate]: the IC50 turned out to be 2 nM in assay [1], 2.8 nM in assay [3], 6.9 nM against TYK2 and 12 nM in assay [4]. Moreover, in assay [2], the “ALK % of inhibition” value is 16%.

Take `COCCNC(=O)Nc1ccc2cc1CCc1cccc(c1)Nc1ncc(Cl)c(n1)N2` [Example B243, N-[6-Chloro-2,4,8,22-tetraazatetracyclo[14.3.1.1(3,7).1(9,13)]docosa-1(20),3(22),4,6,9(21),10,12,16,18-nonaen-12-yl]-N′-(2-methoxyethyl)urea trifluoroacetate]: the IC50 in assay [1] came out at 1.5 nM; in assay [3], 0.92 nM; at TYK2 it was 3.1 nM; in assay [4], 16 nM. Further, the “ALK % of inhibition” value in assay [2] was 14%.

`O=C(Nc1nc[nH]n1)Nc1ccc2cc1CCc1cccc(c1)Nc1ncc(Cl)c(n1)N2` [Example B244, N-[6-Chloro-2,4,8,22-tetraazatetracyclo[14.3.1.1(3,7).1(9,13)]docosa-1(20),3(22),4,6,9(21),10,12,16,18-nonaen-12-yl]-N′-1H-1,2,4-triazol-3-ylurea trifluoroacetate]: the IC50 in assay [1] is 19 nM; in assay [3], 9.2 nM; at TYK2 it was 1.6 nM; in assay [4] it was 2.6 nM. For the same compound, in assay [2], the “ALK % of inhibition” value was 63%.

As for `O=C(Nc1nccs1)Nc1ccc2cc1CCc1cccc(c1)Nc1ncc(Cl)c(n1)N2` [Example B245, N-[6-Chloro-2,4,8,22-tetraazatetracyclo[14.3.1.1(3,7).1(9,13)]docosa-1(20),3(22),4,6,9(21),10,12,16,18-nonaen-12-yl]-N′-1,3-thiazol-2-ylurea trifluoroacetate], the 50% inhibitory concentration (IC50) in assay [1] was found to be 78 nM; in assay [3], 17 nM; against TYK2, 8.5 nM; in assay [4] it was 20 nM. For the same compound, in assay [2], the “ALK % of inhibition” value is listed as 41%.

As to `O=C(NCc1ccncc1)Nc1ccc2cc1CCc1cccc(c1)Nc1ncc(Cl)c(n1)N2` [Example B246, N-[6-Chloro-2,4,8,22-tetraazatetracyclo[14.3.1.1(3,7).1(9,13)]docosa-1(20),3(22),4,6,9(21),10,12,16,18-nonaen-12-yl]-N′-(pyridin-4-ylmethyl)ureabis(trifluoroacetate)], the IC50 in assay [1] is 25 nM; in assay [3], 12 nM; on TYK2 it was 3.4 nM; in assay [4], 21 nM. The “ALK % of inhibition” value in assay [2] was determined as 23%.

For `COCC(C)NC(=O)Nc1ccc2cc1CCc1cccc(c1)Nc1ncc(Cl)c(n1)N2` (centres unmarked) [Example B247, N-[6-Chloro-2,4,8,22-tetraazatetracyclo[14.3.1.1(3,7).1(9,13)]docosa-1(20),3(22),4,6,9(21),10,12,16,18-nonaen-12-yl]-N′-(2-methoxy-1-methylethyl)ureatrifluoroacetate], the IC50 in assay [1] was found to be 4 nM; in assay [3] it was 6.5 nM; against TYK2, 20 nM; in assay [4], 73 nM. In assay [2], the “ALK % of inhibition” value came out at 7.5%.

Regarding `Cc1cnc(NC(=O)Nc2ccc3cc2CCc2cccc(c2)Nc2ncc(Cl)c(n2)N3)s1` [Example B248, N-[6-Chloro-2,4,8,22-tetraazatetracyclo[14.3.1.1(3,7).1(9,13)]docosa-1(20),3(22),4,6,9(21),10,12,16,18-nonaen-12-yl]-N′-(5-methyl-1,3-thiazol-2-yl)urea trifluoroacetate], the concentration for half-maximal inhibition (IC50) in assay [1] was 171 nM; in assay [3], 77 nM; against TYK2, 25 nM; in assay [4], 46 nM. Besides, the “ALK % of inhibition” value in assay [2] turned out to be 32%.

Turning to `Cc1csc(NC(=O)Nc2ccc3cc2CCc2cccc(c2)Nc2ncc(Cl)c(n2)N3)n1` [Example B249, N-[6-Chloro-2,4,8,22-tetraazatetracyclo[14.3.1.1(3,7).1(9,13)]docosa-1(20),3(22),4,6,9(21),10,12,16,18-nonaen-12-yl]-N′-(4-methyl-1,3-thiazol-2-yl)ureatrifluoroacetate], the IC50 in assay [1] amounted to 8.6 nM; in assay [3] it was 6 nM; at TYK2, 30 nM; in assay [4] it was 103 nM. Besides, the “ALK % of inhibition” value in assay [2] is reported as 35%.

For `O=C(Nc1nc(C(=O)O)cs1)Nc1ccc2cc1CCc1cccc(c1)Nc1ncc(Cl)c(n1)N2` [Example B250, 2-[({[6-Chloro-2,4,8,22-tetraazatetracyclo[14.3.1.1(3,7).1(9,13)]docosa-1(20),3(22),4,6,9(21),10,12,16,18-nonaen-12-yl]amino}carbonyl)amino]-1,3-thiazole-4-carboxylic acid trifluoroacetate], the concentration for half-maximal inhibition (IC50) in assay [1] came out at 28 nM; in assay [3] it was 28 nM; at TYK2 it was 5.5 nM; in assay [4], 6.3 nM. Moreover, the “ALK % of inhibition” value in assay [2] is 66%.

As for `O=C(Nc1nnn[nH]1)Nc1ccc2cc1CCc1cccc(c1)Nc1ncc(Cl)c(n1)N2` [Example B251, N-[6-Chloro-2,4,8,22-tetraazatetracyclo[14.3.1.1(3,7).1(9,13)]docosa-1(20),3(22),4,6,9(21),10,12,16,18-nonaen-12-yl]-N′-1H-tetrazol-5-ylurea trifluoroacetate], the IC50 in assay [1] worked out at 37 nM; in assay [3], 53 nM; on TYK2, 14 nM; in assay [4] it was 4.2 nM. For the same compound, the “ALK % of inhibition” value in assay [2] is 44%.

Take `O=C(Nc1ncc(Cl)s1)Nc1ccc2cc1CCc1cccc(c1)Nc1ncc(Cl)c(n1)N2` [Example B252, N-[6-Chloro-2,4,8,22-tetraazatetracyclo[14.3.1.1(3,7).1(9,13)]docosa-1(20),3(22),4,6,9(21),10,12,16,18-nonaen-12-yl]-N′-(5-chloro-1,3-thiazol-2-yl)urea trifluoroacetate]: the IC50 in assay [1] was 26 nM; in assay [3] it was 13 nM; against TYK2, 62 nM; in assay [4], 119 nM. Besides, the “ALK % of inhibition” value in assay [2] is on record as 20%.

On to `O=C(Nc1ccccn1)Nc1ccc2cc1CCc1cccc(c1)Nc1ncc(Cl)c(n1)N2` [Example B253, N-[6-Chloro-2,4,8,22-tetraazatetracyclo[14.3.1.1(3,7).1(9,13)]docosa-1(20),3(22),4,6,9(21),10,12,16,18-nonaen-12-yl]-N′-pyridin-2-ylurea bis(trifluoroacetate)], for which the half-inhibitory concentration (IC50) worked out at 72 nM in assay [1], 90 nM in assay [3], 173 nM against TYK2 and 695 nM in assay [4]. The “ALK % of inhibition” value in assay [2] was 4.9%.

With `O=C(NCCN1CCOCC1)Nc1ccc2cc1CCc1cccc(c1)Nc1ncc(Cl)c(n1)N2` [Example B254, N-[6-Chloro-2,4,8,22-tetraazatetracyclo[14.3.1.1(3,7).1(9,13)]docosa-1(20),3(22),4,6,9(21),10,12,16,18-nonaen-12-yl]-N′-(2-morpholin-4-ylethyl)urea bis(trifluoroacetate)], the IC50 is 2.4 nM in assay [1], 2 nM in assay [3], 8.2 nM against TYK2 and 26 nM in assay [4]. Moreover, the “ALK % of inhibition” value in assay [2] was 18%.

Regarding `O=C(NCCN1CCCC1)Nc1ccc2cc1CCc1cccc(c1)Nc1ncc(Cl)c(n1)N2` [Example B255, N-[6-Chloro-2,4,8,22-tetraazatetracyclo[14.3.1.1(3,7).1(9,13)]docosa-1(20),3(22),4,6,9(21),10,12,16,18-nonaen-12-yl]-N′-(2-pyrrolidin-1-ylethyl)urea bis(trifluoroacetate)], the half-inhibitory concentration (IC50) came out at 14 nM in assay [1], 5.5 nM in assay [3], 25 nM against TYK2 and 53 nM in assay [4]. In addition, the “ALK % of inhibition” value in assay [2] is recorded as 32%.

Turning to `CN1CCCC1CCNC(=O)Nc1ccc2cc1CCc1cccc(c1)Nc1ncc(Cl)c(n1)N2` (centres unmarked) [Example B256, N-[6-Chloro-2,4,8,22-tetraazatetracyclo[14.3.1.1(3,7).1(9,13)]docosa-1(20),3(22),4,6,9(21),10,12,16,18-nonaen-12-yl]-N′-[2-(1-methylpyrrolidin-2-yl)ethyl]urea bis(trifluoroacetate)], the concentration for half-maximal inhibition (IC50) in assay [1] came to 13 nM; in assay [3], 4.2 nM; against TYK2, 21 nM; in assay [4], 77 nM. Also, the “ALK % of inhibition” value in assay [2] turned out to be 23%.
